Assay results reported in patent publication US20260083722A1, “BIFUNCTIONAL DEGRADERS COMPRISING ELECTROPHILIC PROTACS THAT ENGAGE DCAF1 AND PHARMACEUTICAL COMPOSITIONS COMPRISING THE SAME” (THE SCRIPPS RESEARCH INSTITUTE, priority 2022, published 2026).

What was measured:
[1] = molecular target: T1, recombinant DCAF1-WT (a.a.'s 1046-1396) (Homo sapiens, UniProt Q9Y4B6); experiment: gel-ABPP with recombinant purified DCAF1-WT doped into HEK293T cell proteome; format: binding
T1 construct: form of DCAF1 containing the WD40 domain (amino acids (a.a.'s) 1046-1396); made in house
Excerpt: FIG. 2 that azetidine acrylamides stereo- and site-selectively engage recombinant DCAF1_C1113. (A) Domain map of DCAF1 with the region used for recombinant protein studies marked in a bracket (a.a.'s 1046-1396) and C1113 highlighted in red. (B) Crystal structure of a DCAF1-Vpx complex (pdb: 5AJA). DCAF1 (a.a.'s 1046-1396) is shown in cyan, Vpx is shown in yellow, and C1113, which is located at the DCAF1-Vpx interface is shown in red. (C) Structures of alkyne-modified azetidine acrylamides MY-11A (5) and MY-11B (6). (D) Gel-ABPP showing the concentration-dependent reactivity of MY-11A and MY-11B (1 h) reactivity with recombinant, purified DCAF1-WT or the DCAF1-C1113A mutant (0.06 μg/μL of DCAF1 protein per sample) doped into HEK293T cell proteome (1 μg/μL). MY-11A/B labeling of proteins was visualized by CuAAC conjugation to an azide-rhodamine tag followed by SDS-PAGE and in-gel fluorescence scanning. Results are from a single experiment representative of two independent experiments. (E) Gel-ABPP showing the concentration-dependent effects of MY-1A and MY-1B on MY-11B reactivity with DCAF1-WT. Samples were treated with MY-1A/B for 2 h, followed by MY-11B (25 μM, 1 h) and analyzed as described in (D). Left, quantification of data presented as mean values±SEM from two independent experiments. Right, representative gel-ABPP results. (D, E) Lower images are Coomassie blue-stained gels corresponding to ABPP gels shown in upper images.
(A) Structures of candidate electrophilic PROTACs YT41R (7), YT41S (8), YT47R (9), and YT47S (10). (B) Gel-ABPP showing the concentration-dependent effects of YT41R and YT47R on MY-11B reactivity with DCAF1-WT protein (0.06 μg/μL of DCAF1 protein per sample) doped into HEK293T cell proteome (1 μg/μL). Also shown are the effects of YT41S and YT47S tested at a single concentration (100 μM). Samples were treated with heterobifunctional compounds for 2 h, followed by MY-11B (25 μM, 1 h) and analyzed as described in FIG. 2D. Left, representative gel-ABPP results. Lower image is Coomassie blue-stained gel corresponding to ABPP gel shown in upper image. Right, quantification of data presented as mean values±SEM from two independent experiments.
DCAF1 is a multi-domain substrate receptor for CRL4 ligases (FIG. 2A) that has diverse physiological and disease functions, including being co-opted by the HIV-2 virus to promote degradation of the antiviral host protein SAMHD1^27-28. […] We verified the stereo- and site-selective engagement of DCAF1_C1113 by azetidine acrylamides using alkynylated analogues of MY-1A and MY-1B (MY-11A (5) and MY-11B (6), respectively; FIG. 2C). For these experiments, we doped into HEK293T cell lysates a recombinantly expressed and purified form of DCAF1 containing the WD40 domain (amino acids (a.a.'s) 1046-1396), in complex with the CRL4 adaptor protein DDB1^31, and exposed these samples to varying concentrations of MY-11A or MY-11B. After 1 h, we assessed MY-11A and MY-11B engagement of DCAF1 by copper-catalyzed azide-alkyne cycloaddition (CuAAC)^32 with an azide-rhodamine reporter tag followed by SDS-PAGE and in-gel fluorescence scanning^33. […] We used gel-ABPP to quantify an in vitro target engagement value (TE50) of approximately 25 μM (95% C.I.=13-38 μM) for MY-1B labeling of DCAF1 (FIG. 2E, left).

[2] = molecular target: T2, HA-FKBP12 (Homo sapiens, UniProt P62942); experiment: HA-FKBP12 abundance by Western blotting in transfected HEK293T cells; format: cell-based; details: 5 μM, 1 h pre-treatment
T2 construct: expressed in transfected cells; host or cells: HEK293T
Excerpt: (A) Left, western blots showing concentration-dependent effects of YT47R (upper) and YT41R (lower) on FKBP12 abundance in HEK293T cells expressing HA-FBKP12 with or without co-expression of FLAG-DCAF1. Right, quantification of HA-FKBP12 abundance in the indicated experimental groups. (B) Left, western blots showing effects of YT47R versus YT47S (upper) and YT41R versus YT41S (lower) on FKBP12 abundance in HEK293T cells co-expressing HA-FBKP12 and FLAG-DCAF1. Right, quantification of HA-FKBP12 abundance in the indicated experimental groups. (C) Western blots showing effects of YT47R (left blots) and YT41R (right blots) on FKBP12 abundance in HEK293T cells co-expressing HA-FBKP12 and either FLAG-DCAF1-WT or FLAG-DCAF1-C1113A mutant. Quantification of HA-FKBP12 abundance in the indicated experimental groups is shown in the adjacent bar graphs. For (A-C), FKBP12 abundance was determined at 24 h post-treatment with compounds, and data are mean values±SEM for three independent experiments. Statistical significance was calculated with unpaired two-tailed Student's t-tests comparing YT41R/YT47R- and DMSO-treated cells. ***P<0.001, ****P<0.0001.
(A) Left, western blots showing effects of proteasome (MG132) and Neddylation (MLN4924) inhibitors (1 h pre-treatment) on YT47R- and YT41R-dependent degradation of FKBP12 in HEK293T cells co-expressing HA-FBKP12 and FLAG-DCAF1. FKBP12 abundance was determined at 24 h post-treatment with YT47R or YT41R. Right, quantification of HA-FKBP12 abundance in the indicated experimental groups. (B) Left, western blots showing effects of the FKBP12 ligand SLF (20 μM) or DCAF1 ligand MY-11B (1 h pre-treatment with 20 μM SLF or 5 μM MY-11B) on YT47R- and YT41R-dependent degradation of FKBP12 in HEK293T cells co-expressing HA-FBKP12 and FLAG-DCAF1. FKBP12 abundance was determined at 24 h post-treatment with YT47R or YT41R. Right, quantification of HA-FKBP12 abundance in the indicated experimental groups. (C) Left, western blots showing effects of MY-11A or MY-11B (5 μM, 1 h pre-treatment) on YT47R- and YT41R-dependent degradation of FKBP12 in HEK293T cells co-expressing HA-FBKP12 and FLAG-DCAF1. FKBP12 abundance was determined at 24 h post-treatment with YT47R or YT41R. Right, quantification of HA-FKBP12 abundance in the indicated experimental groups. For (A-C), data are mean values±SEM for three-five independent experiments. Statistical significance was calculated with unpaired two-tailed Student's t-tests comparing YT41R/YT47R- and DMSO-treated cells. ****P<0.0001.
Figure S3. Concentration-dependent degradation of FKBP12 by DCAF1-directed electrophilic PROTACs. Top, western blots showing concentration-dependent effects of YT47R and YT41R on FKBP12 abundance in HEK293T cells co-expressing HA-FBKP12 and FLAG-DCAF1. Data are mean values±SEM for four independent experiments. Statistical significance was calculated with unpaired two-tailed Student's t-tests comparing YT41R/YT47R- and DMSO-treated cells. *P<0.1, **P<0.01, ***P<0.001, ****P<0.0001.
Figure S4. Time-dependent degradation of FKBP12 by DCAF1-directed electrophilic PROTACs. Top, western blots showing time-dependent effects of YT47R and YT41R (2 μM each) on FKBP12 abundance in HEK293T cells co-expressing HA-FBKP12 and FLAG-DCAF1. Data are mean values±SEM for four independent experiments. Statistical significance was calculated with unpaired two-tailed Student's t-tests comparing YT41R/YT47R- and DMSO-treated cells. ****P<0.0001.
We next treated HEK293T cells co-transfected with FLAG epitope-tagged full length DCAF1 (a.a.'s 1-1507) and HA (hemagglutinin) epitope-tagged FKBP12 with a concentration range of YT41R or YT47R and, after 24 h, measured HA-FKBP12 abundance by Western blotting.

[3] = molecular target: T3, DCAF1-C1113A mutant (Homo sapiens, UniProt Q9Y4B6, C1113A); experiment: gel-ABPP with recombinant DCAF1-C1113A mutant doped into HEK293T cell proteome; format: binding; details: 1 h
T3 construct: the region used for recombinant protein studies marked in a bracket (a.a.'s 1046-1396); made in house
Excerpt: FIG. 2 that azetidine acrylamides stereo- and site-selectively engage recombinant DCAF1_C1113. (A) Domain map of DCAF1 with the region used for recombinant protein studies marked in a bracket (a.a.'s 1046-1396) and C1113 highlighted in red. (B) Crystal structure of a DCAF1-Vpx complex (pdb: 5AJA). DCAF1 (a.a.'s 1046-1396) is shown in cyan, Vpx is shown in yellow, and C1113, which is located at the DCAF1-Vpx interface is shown in red. (C) Structures of alkyne-modified azetidine acrylamides MY-11A (5) and MY-11B (6). […] MY-11A/B labeling of proteins was visualized by CuAAC conjugation to an azide-rhodamine tag followed by SDS-PAGE and in-gel fluorescence scanning. […] Samples were treated with MY-1A/B for 2 h, followed by MY-11B (25 μM, 1 h) and analyzed as described in (D). Left, quantification of data presented as mean values±SEM from two independent experiments. […]
DCAF1 is a multi-domain substrate receptor for CRL4 ligases (FIG. 2A) that has diverse physiological and disease functions, including being co-opted by the HIV-2 virus to promote degradation of the antiviral host protein SAMHD1^27-28. […] After 1 h, we assessed MY-11A and MY-11B engagement of DCAF1 by copper-catalyzed azide-alkyne cycloaddition (CuAAC)^32 with an azide-rhodamine reporter tag followed by SDS-PAGE and in-gel fluorescence scanning^33. […]

[4] = tested on: ternary complex of FKBP12 and DCAF1; experiment: co-immunoprecipitation of DCAF1 with HA-FKBP12 in HEK293T cells (ternary complex); format: cell-based; details: FLAG-DCAF1-WT, 5 μM, 2 h, in the presence of MG132 (10 μM)
Procedure: (A) Left, western blots showing effects of YT47R and YT47S on the immunoprecipitation (IP) of FLAG-DCAF1-WT or FLAG-DCAF1-C1113A with HA-FKBP12 in HEK293T cells co-expressing these proteins. Cells were treated with YT47R or YT47S (5 μM) for 2 h in the presence of MG132 (10 μM) prior to lysis and IP with an anti-HA antibody and western blotting for the indicated proteins (DCAF1, FKBP12, and ubiquitinated protein). Right, bar graphs quantifying DCAF1 (top) and ubiquitination (Ub) (bottom) in the indicated IP groups. (B) Left, western blots showing effects of YT47R and YT47S on the IP of endogenous DCAF1 with HA-FKBP12 in HEK293T cells expressing HA-FKBP12. Cells were treated with YT47R or YT47S (5 μM) for 2 h in the presence of MG132 (10 μM) prior to lysis and IP with an anti-HA antibody and western blotting for the indicated proteins (DCAF1, FKBP12). Right, bar graph quantifying DCAF1 in the indicated IP groups. For (A, B), data are mean values±SEM for three independent experiments. Statistical significance was calculated with unpaired two-tailed Student's t-tests comparing YT41R/YT47R- and DMSO-treated cells. **P<0.01, ****P<0.0001. (C) MS-ABPP quantification of IA-DTB labeling of the indicated cysteines in DCAF1 from FLAG-DCAF1-WT-expressing HEK293T cells treated with the indicated concentrations of YT47R (3 h) relative to cells treated with DMSO. Data represent average values±SEM from four independent experiments. Statistical significance was calculated with unpaired two-tailed Student's t-tests comparing compound to DMSO treated cells. *P<0.1.
Finally, we investigated whether electrophilic PROTACs induce a stable ternary complex of FKBP12 with DCAF1 and promote FKBP12 ubiquitination. […] A ternary complex was not observed in cells expressing the DCAF1-C1113A mutant (FIG. 6A), supporting that YT47R induces this complex through site-specifically reacting with C1113. […] In considering possible reasons why this ternary complex formation with endogenous DCAF1 was insufficient to support the degradation of recombinantly expressed FKBP12 (FIG. 4A), we speculate that our current PROTACs (YT41R, YT47R) may require further improvements in cellular properties to enable robust targeted protein degradation mediated by physiological concentrations of DCAF1.

T1 sequence (Q9Y4B6 1046-1396): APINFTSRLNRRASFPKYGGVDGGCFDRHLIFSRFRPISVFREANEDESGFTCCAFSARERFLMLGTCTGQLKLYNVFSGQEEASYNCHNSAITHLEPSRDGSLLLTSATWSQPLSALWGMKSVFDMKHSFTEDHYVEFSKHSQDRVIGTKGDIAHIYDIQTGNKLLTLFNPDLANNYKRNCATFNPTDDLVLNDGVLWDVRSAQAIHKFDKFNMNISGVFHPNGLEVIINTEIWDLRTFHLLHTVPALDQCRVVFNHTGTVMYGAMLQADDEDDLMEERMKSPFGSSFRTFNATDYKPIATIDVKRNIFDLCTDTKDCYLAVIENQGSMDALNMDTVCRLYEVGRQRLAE
T1 sequence (Q16531 whole entry partner, the tested form may be a part): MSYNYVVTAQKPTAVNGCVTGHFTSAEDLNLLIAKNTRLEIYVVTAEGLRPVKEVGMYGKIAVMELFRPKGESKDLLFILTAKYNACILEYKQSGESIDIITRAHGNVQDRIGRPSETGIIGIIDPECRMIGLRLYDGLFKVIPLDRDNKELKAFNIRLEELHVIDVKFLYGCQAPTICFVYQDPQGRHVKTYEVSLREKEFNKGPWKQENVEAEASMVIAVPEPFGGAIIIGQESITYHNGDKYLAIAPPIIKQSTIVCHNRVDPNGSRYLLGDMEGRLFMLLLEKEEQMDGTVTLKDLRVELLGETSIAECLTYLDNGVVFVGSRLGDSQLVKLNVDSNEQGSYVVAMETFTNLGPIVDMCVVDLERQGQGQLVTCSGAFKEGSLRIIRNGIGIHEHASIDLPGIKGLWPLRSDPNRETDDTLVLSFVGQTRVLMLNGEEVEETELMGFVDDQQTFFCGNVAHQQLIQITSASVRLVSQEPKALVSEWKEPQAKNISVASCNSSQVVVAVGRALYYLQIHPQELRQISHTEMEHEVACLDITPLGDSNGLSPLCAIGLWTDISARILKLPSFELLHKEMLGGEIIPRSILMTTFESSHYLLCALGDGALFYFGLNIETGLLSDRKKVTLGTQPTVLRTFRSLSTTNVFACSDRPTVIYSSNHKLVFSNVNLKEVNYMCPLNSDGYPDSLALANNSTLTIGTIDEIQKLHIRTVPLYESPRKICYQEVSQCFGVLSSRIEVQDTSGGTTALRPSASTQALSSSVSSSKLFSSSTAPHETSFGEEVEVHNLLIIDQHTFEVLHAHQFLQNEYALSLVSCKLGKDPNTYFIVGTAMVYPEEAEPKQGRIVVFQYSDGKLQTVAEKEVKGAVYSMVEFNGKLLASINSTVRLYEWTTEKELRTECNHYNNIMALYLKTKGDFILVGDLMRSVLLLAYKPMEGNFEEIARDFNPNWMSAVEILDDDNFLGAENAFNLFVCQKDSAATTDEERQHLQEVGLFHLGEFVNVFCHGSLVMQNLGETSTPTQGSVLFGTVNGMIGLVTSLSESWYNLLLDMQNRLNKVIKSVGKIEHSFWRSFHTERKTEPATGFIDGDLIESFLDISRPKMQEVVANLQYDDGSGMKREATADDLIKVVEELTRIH
T3 sequence (Q9Y4B6 1046-1396 C1113A): as the sequence (Q9Y4B6 1046-1396) above, with C68A counted along it
T3 sequence (Q16531 whole entry partner): as the sequence (Q16531 whole entry partner, the tested form may be a part) above
T2 sequence (P62942 whole entry): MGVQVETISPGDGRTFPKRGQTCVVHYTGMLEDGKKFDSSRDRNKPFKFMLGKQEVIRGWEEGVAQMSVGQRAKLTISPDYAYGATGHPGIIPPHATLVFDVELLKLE

| Structure (SMILES) | labeling of recombinant DCAF1 by alkyne probe ([1]; 1 h, DCAF1-WT, CuAAC azide-rhodamine, in-gel fluorescence) | effect on YT41R/YT47R-mediated degradation of HA-FKBP12 [2] | labeling of DCAF1-C1113A mutant by alkyne probe [3] | inhibition of MY-11B probe reactivity with recombinant DCAF1 ([1]; 2 h, then MY-11B 25 μM 1 h, YT41S and YT47S at single concentration 100 μM) | ternary complex of FKBP12 and DCAF1 [4] |
| --- | --- | --- | --- | --- | --- |
| C#Cc1ccc([C@H]2CN(C(=O)C=C)[C@H]2C(=O)Nc2cccc3cccnc23)cc1 [MY-11B, (2R,3S)-1-acryloyl-3-(4-ethynylphenyl)-N-(88uinoline-8-yl) azetidine-2-carboxamide] | much greater concentration-dependent labeling | blocked | blocked by mutation of C1113 to alanine |  |  |
| C=CC(=O)N1C[C@@H](c2ccc(C(=O)NCCOCCOCCOCCNC(=O)COc3cccc([C@@H](CCc4ccc(OC)c(OC)c4)OC(=O)[C@@H]4CCCCN4C(=O)C(=O)C(C)(C)CC)c3)cc2)[C@H]1C(=O)Nc1cccc2cccnc12 [YT47S] |  |  |  | did not impair | not |
